Measurements: patent publication US20010004643A1, “Pharmaceutical composition with sotalol combination and their use in treatment of cardiac ailments” (priority 1999, published 2001)
Entries after “also recorded” stand apart in the source; their conditions may differ. Marks after values point to notes of the source that are not given here.

Assays:
[1] = test system: beta adrenergic blockade, isolated right auricle preparation of rabbit; test: Beta blocking potency (pA2 against isoprenaline) in isolated rabbit right auricle; conditions: isoprenaline chronotropic response, Schild's plot
Procedure: Estimation of the beta blockade of various ratios of d- and l- isomers of sotalol was carried out in the isolated right auricle preparation of rabbit. The spontaneously beating right atrium was dissected and mounted in a 20 ml tissue bath. The resting tension on the atria was set at 1 g. The contractions were recorded using a force displacement transducer. The spontaneous contractions of the right atria were recorded isometrically and the heart rate was obtained as a derived parameter using a ratemeter that gave the output in beats per minute. Six different ratios of d and l isomers were investigated (1:1, 2:1, 3:1, 4:1, 5:1 and 1:0). Dose-response-curves (DRC) for isoprenaline in the isolated atria, using the chronotropic response were determined by cumulative addition of isoprenaline. The pA2 values of each of the ratios were estimated using the classical Schild's plot (Schild, 1957) and the values are shown in Table 1.

[2] = test system: ouabain induced arrhythmia (VT, VF, mortality); test: Ouabain induced arrhythmia model in guinea pig; type: in vivo; conditions: for % INCIDENCE OF MORTALITY: mortality at 60 min; for deaths due to conduction block (60 min), actual incidence (value in parenthesis) / deaths due to tachyarrhythmia (60 min), actual incidence (value in parenthesis): number of animals; for actual incidence of VF (value in parenthesis) / actual incidence of VT (value in parenthesis) / actual incidence of mortality (value in parenthesis): number of animals of the group; for % INCIDENCE OF VF / % INCIDENCE OF VT: ouabain 240 μg/kg in three doses, observed one hour; for DEATHS DUE TO CONDUCTION BLOCK (60 MIN) Percentage / DEATHS DUE TO TACHYARRHYTHMIA (60 MIN) Percentage: percentage deaths out of total mortality; for actual incidence of mortality (value in parenthesis): 60 min
From the text: Method: Guinea pigs (Dunken Hartley) of either sex weighing between 400 and 500 g were used for the study. The animals were anesthetized with urethane (1.25 g/kg. i.p.). The left common carotid artery and left jugular vein were cannulated for arterial blood pressure monitoring and intravenous access respectively. Lead II electrocardiogram, arterial blood pressure, mean arterial blood pressure (MABP), heart rate were monitored throughout the experiment.
After initial surgical preparations and allowing 30 minutes for the animal to stabilise the first dose of ouabain (90 μg/kg) was administered over a period of one minute. After the interval of thirty minutes, second dose of ouabain (60 μg/kg) was administered over a period of one minute. One minute after this dose, 0.5 ml saline (in control experiments) was administered over a period of one minute. After an interval of 10 minutes a third dose of ouabain (90 μg/kg) was administered over a period of one minute. […] The test compounds were administered to animals in test group in place of saline to evaluate their antiarrhythmic potential. From the ECG recordings, the incidence of VT, VF and mortality were recorded. The doses of ratios of sotalol isomers studied were 0.1, 0.5 and 2.5 mg/kg.
Interpretation of ECG recordings: Minor disturbance in rhythm was not considered while evaluating ventricular tachyarrhythmias. A run of more than 3 ventricular ectopic beats having wide QRS complexes associated with partial haemodynamic collapse was considered as Ventricular Tachycardia (VT). Total morphological irregularity of repetitive complexes for at least six cycles associated with complete haemodynamic collapse was considered as Ventricular Fibrillation (VF). Successful arrhythmia protection was defined as no occurrence of VT and VF from the injection of saline/test drug till the end of the experiment.
Statistics: Chi square test with continuity correction at 95% confidence limit was applied to find out the statistical significance between control and test groups for incidence of VT, VF and mortality. Whenever, any of the value in a cell was less than 5, Fischer's exact probability test was used.
Results: Different ratios of sotalol in the dose range from 0.02 mg/kg to 12.5 mg/kg were studied in individual groups of animals. In all 18 groups were studied and at least 6 animals were used in each group. In control animals ouabain 240 μg/kg in three divided doses induced reproducible ventricular tachyarrhythmias in guinea pigs. It was observed that ventricular arrhythmias appeared after the administration of the third dose. Guinea pigs which responded early i.e. before or within 1 min. of administration of the second dose, were considered early responders and were not included in the study. […] In the study, control experiments were carried out randomly interspersed in test groups. Among the 42 control animals the incidence of VT was 81%, incidence of VF was 71.4% and the incidence of mortality at 60 minutes was 61.9%.

[3] = guinea pig, in vivo, listed as 2.5:1 ratio (d:l)

CC(C)NCC(O)c1ccc(NS(C)(=O)=O)cc1 (racemic) [dl-SOTALOL, N-[4-[1-hydroxy-2-[(1-methylethyl)amino]ethyl]phenyl] methane sulfonamide]
pA2 Mean [1]: 6.48
% INCIDENCE OF MORTALITY ([2]; 0.02 mg/kg): 16.6%
deaths due to conduction block (60 min), actual incidence (value in parenthesis) ([2]; 0.02 mg/kg): (0)
deaths due to tachyarrhythmia (60 min), actual incidence (value in parenthesis) ([2]; 0.02 mg/kg): (1)
actual incidence of VF (value in parenthesis) ([2]; 0.02 mg/kg): (5)
actual incidence of VT (value in parenthesis) ([2]; 0.02 mg/kg): (5)
% INCIDENCE OF VF ([2]; 0.02 mg/kg): 83.3%
% INCIDENCE OF VT ([2]; 0.02 mg/kg): 83.3%
DEATHS DUE TO CONDUCTION BLOCK (60 MIN) Percentage ([2]; 0.02 mg/kg): 00.0%
DEATHS DUE TO TACHYARRHYTHMIA (60 MIN) Percentage ([2]; 0.02 mg/kg): 100.0%
actual incidence of mortality (value in parenthesis) ([2]; 0.1 mg/kg): (2)
% INCIDENCE OF MORTALITY ([2]; 0.1 mg/kg): 33.3%
deaths due to conduction block (60 min), actual incidence (value in parenthesis) ([2]; 0.1 mg/kg): (1)
deaths due to tachyarrhythmia (60 min), actual incidence (value in parenthesis) ([2]; 0.1 mg/kg): (1)
actual incidence of VF (value in parenthesis) ([2]; 0.1 mg/kg): (2)
actual incidence of VT (value in parenthesis) ([2]; 0.1 mg/kg): (2)*
% INCIDENCE OF VF ([2]; 0.1 mg/kg): 33.3%
% INCIDENCE OF VT ([2]; 0.1 mg/kg): 33.3%
DEATHS DUE TO CONDUCTION BLOCK (60 MIN) Percentage ([2]; 0.1 mg/kg): 50.0%
DEATHS DUE TO TACHYARRHYTHMIA (60 MIN) Percentage ([2]; 0.1 mg/kg): 50.0%
actual incidence of mortality (value in parenthesis) ([2]; 0.5 mg/kg): (3)
% INCIDENCE OF MORTALITY ([2]; 0.5 mg/kg): 50.0%
deaths due to conduction block (60 min), actual incidence (value in parenthesis) ([2]; 0.5 mg/kg): (3)
deaths due to tachyarrhythmia (60 min), actual incidence (value in parenthesis) ([2]; 0.5 mg/kg): (0)
actual incidence of VF (value in parenthesis) ([2]; 0.5 mg/kg): (2)
actual incidence of VT (value in parenthesis) ([2]; 0.5 mg/kg): (2)*
% INCIDENCE OF VF ([2]; 0.5 mg/kg): 33.3%
% INCIDENCE OF VT ([2]; 0.5 mg/kg): 33.3%
DEATHS DUE TO CONDUCTION BLOCK (60 MIN) Percentage ([2]; 0.5 mg/kg): 100.0%
DEATHS DUE TO TACHYARRHYTHMIA (60 MIN) Percentage ([2]; 0.5 mg/kg): 00.0%
protection against mortality ([2]; 2.5 mg/kg): no protection
protection from deaths due to tachyarrhythmias ([2]; 2.5 mg/kg): completely protected
actual incidence of mortality (value in parenthesis) ([2]; 2.5 mg/kg): (6)
% INCIDENCE OF MORTALITY ([2]; 2.5 mg/kg): 60.0%
% INCIDENCE OF MORTALITY ([2]; 2.5 mg/kg, listed as d:l sotalol (ratio 1:1)): 60%
deaths due to conduction block (60 min), actual incidence (value in parenthesis) ([2]; 2.5 mg/kg): (6)
deaths due to tachyarrhythmia (60 min), actual incidence (value in parenthesis) ([2]; 2.5 mg/kg): (0)*
actual incidence of VF (value in parenthesis) ([2]; 2.5 mg/kg): (0)*
actual incidence of VT (value in parenthesis) ([2]; 2.5 mg/kg): (0)*
% INCIDENCE OF VF ([2]; 2.5 mg/kg): 00.0%
% INCIDENCE OF VT ([2]; 2.5 mg/kg): 00.0%
DEATHS DUE TO CONDUCTION BLOCK (60 MIN) Percentage ([2]; 2.5 mg/kg): 100.0%
DEATHS DUE TO TACHYARRHYTHMIA (60 MIN) Percentage ([2]; 2.5 mg/kg): 00.0%
protection against ouabain induced VT ([2]; 0.1, 0.5 and 2.5 mg/kg dose): able to protect
protection against VF ([2]; 0.1 and 0.5 mg/kg doses): some protection
cause of deaths ([2]; as the dose was increased): entirely due to conduction abnormalities
dose at which complete protection against VT was observed ([2]; guinea pig, in vivo): 2.5 mg/kg
dose that completely protected against VF ([2]; guinea pig, in vivo): 2.5 mg/kg
minimum protective dose against ouabain induced VT ([2]; guinea pig, in vivo): 0.1 mg/kg
cause of deaths ([2]; lower doses): due to tachyarrhythmias
protection against mortality ([2]; lower doses): reduced mortality
deaths due to conduction block increased ([2]; no dose stated): increased

CC(C)NCC(O)c1ccc(NS(C)(=O)=O)cc1 (stereo not shown) [2.5:1 RATIO, N-[4-[1-hydroxy-2-[(1-methylethyl)amino]ethyl]phenyl] methane sulfonamide]
mortality compared to 2:1 ratio at the same dose ([2]; 0.5 mg/kg): lower
protection against VF ([2]; 0.5 mg/kg): some protection, it was not complete
actual incidence of mortality (value in parenthesis) ([2]; 0.5 mg/kg): (2)
protection against ouabain induced VT ([2]; 0.5 mg/kg, listed as 2.5:1 ratio (d:l)): protection was not complete
% INCIDENCE OF MORTALITY ([2]; 0.5 mg/kg): 33.3%
deaths due to conduction block (60 min), actual incidence (value in parenthesis) ([2]; 0.5 mg/kg): (2)
deaths due to tachyarrhythmia (60 min), actual incidence (value in parenthesis) ([2]; 0.5 mg/kg): (0)
actual incidence of VF (value in parenthesis) ([2]; 0.5 mg/kg): (2)
actual incidence of VT (value in parenthesis) ([2]; 0.5 mg/kg): (2)*
% INCIDENCE OF VF ([2]; 0.5 mg/kg): 33.3%
% INCIDENCE OF VT ([2]; 0.5 mg/kg): 33.3%
DEATHS DUE TO CONDUCTION BLOCK (60 MIN) Percentage ([2]; 0.5 mg/kg): 100.0%
DEATHS DUE TO TACHYARRHYTHMIA (60 MIN) Percentage ([2]; 0.5 mg/kg): 00.0%
protection against mortality ([2]; 2.5 mg/kg): protected significantly
protection from deaths due to tachyarrhythmias ([2]; 2.5 mg/kg): completely protected
protection against arrhythmias (VT and VF) ([2]; 2.5 mg/kg, listed as 2.5:1): completely protects; also recorded: complete protection
% INCIDENCE OF MORTALITY ([2]; 2.5 mg/kg): 16.6%
% INCIDENCE OF MORTALITY ([2]; 2.5 mg/kg, listed as 2.5:1): 16.6%
deaths due to conduction block (60 min), actual incidence (value in parenthesis) ([2]; 2.5 mg/kg): (1)
deaths due to tachyarrhythmia (60 min), actual incidence (value in parenthesis) ([2]; 2.5 mg/kg): (0)
actual incidence of VF (value in parenthesis) ([2]; 2.5 mg/kg): (0)*
actual incidence of VT (value in parenthesis) ([2]; 2.5 mg/kg): (0)*
% INCIDENCE OF VF ([2]; 2.5 mg/kg): 0.0%
% INCIDENCE OF VT ([2]; 2.5 mg/kg): 0.0%
DEATHS DUE TO CONDUCTION BLOCK (60 MIN) Percentage ([2]; 2.5 mg/kg): 100.0%
DEATHS DUE TO TACHYARRHYTHMIA (60 MIN) Percentage ([2]; 2.5 mg/kg): 00.0%
dose at which complete protection against VT was observed [2, 3]: 2.5 mg/kg
dose that completely protected against VF [2, 3]: 2.5 mg/kg
cause of deaths ([2]; no dose stated): due to conduction abnormalities
mortality compared with control groups ([2]; no dose stated): less than that of control groups
